Values of other authors as cited in patent publication US20140018379A1, “PYRIMIDINE DERIVATIVES” (CONCERT PHARMACEUTICALS INC., priority 2010, published 2014).

Conditions: 12th CROI 2005, Abst 160

Cc1cc(/C=C/C#N)cc(C)c1Nc1ccnc(Nc2ccc(C#N)cc2)n1.Cl [rilpivirine, 4-[4-[4-[(E)-2-cyanovinyl]-2,6-dimethylphenylamino]pyrimidin-2-ylamino]benzonitrile hydrochloride]
safety and tolerability in clinical trials: safe and well-tolerated | most commonly reported adverse event (clinical trials): Headache
